# Values of other authors as cited in PubChem BioAssay AID1259409 (Chemical Carcinogenesis Research Information System (CCRIS), 2018).
# Tested on: rodent chemically induced tumor inhibition, incidence and multiplicity
# Assay: CCRIS tumor inhibitor studies
# Settings: Dose [Inhibitor]: 0, Route [Inhibitor]: DERMAL, Species: MOUSE, Strain/Sex: SENCAR
# Description: The CCRIS database contains chemical records with carcinogenicity, mutagenicity, tumor promotion, and tumor inhibition test results. It was developed by the National Cancer Institute (NCI). Data are derived from studies cited in primary journals, current awareness tools, NCI reports, and other sources. Test results have been reviewed by experts in carcinogenesis and mutagenesis.
# CCRIS provides historical information from the years 1985 - 2011. It is no longer updated.
# This is an archive assay for CCRIS tumor inhibitor studies.
smiles,measurement,setting,value
CC(C)=CCOc1c2occc2cc2ccc(=O)oc12,"tumour outcome (control, treated, inhibition, significance)","Carcinogen: 7,12-DIMETHYLBENZ[A]ANTHRACENE, 57-97-6, 400 NMOL 1/WK FOR 45 WK APPLIED 5 MIN PRIOR TO EACH CARCINOGEN DOSE (STUDY DURATION: 45 WK), Target Tissue: Type of Lesion: SKIN: PAPILLOMA, Dose [Carcinogen]: 50 NMOL 1/WK FOR 45 WK, Promoter: NONE USED","97%, 60%, 38%, p<0.05"
same,"tumour outcome (control, treated, inhibition, significance)","Carcinogen: 7,12-DIMETHYLBENZ[A]ANTHRACENE, 57-97-6, 400 NMOL ONCE APPLIED 5 MIN PRIOR TO CARCINOGEN DOSE (STUDY DURATION: 25 WK), Target Tissue: Type of Lesion: SKIN: PAPILLOMA, Dose [Carcinogen]: 10 NMOL ONCE, Promoter: 12-O-TETRADECANOYLPHORBOL-13-ACETATE, 16561-29-8","93%, 93%, 0%, not significant"
same,"tumour outcome (control, treated, inhibition, significance)","Carcinogen: 7,12-DIMETHYLBENZ[A]ANTHRACENE, 57-97-6, 800 NMOL ONCE APPLIED 5 MIN PRIOR TO CARCINOGEN DOSE (STUDY DURATION: 25 WK), Target Tissue: Type of Lesion: SKIN: PAPILLOMA, Dose [Carcinogen]: 200 NMOL ONCE, Promoter: 12-O-TETRADECANOYLPHORBOL-13-ACETATE, 16561-29-8","93%, 75%, 19%, not significant"
same,"tumour outcome (control, treated, inhibition, significance)","Carcinogen: 7-12-DIMETHYLBENZ[A]ANTHRACENE, 57-97-6, 400 NMOL 1/WK FOR 45 WK APPLIED 5 MIN PRIOR TO EACH CARCINOGEN DOSE (STUDY DURATION: 45 WK), Target Tissue: Type of Lesion: SKIN: CARCINOMA, Dose [Carcinogen]: 50 NMOL 1/WK FOR 45 WK","90%, 53%, 41%, not calculated"
same,"tumour outcome (control, treated, inhibition, significance)","Carcinogen: 7-12-DIMETHYLBENZ[A]ANTHRACENE, 57-97-6, 800 NMOL 1/WK FOR 45 WK APPLIED 5 MIN PRIOR TO EACH CARCINOGEN DOSE (STUDY DURATION: 45 WK), Target Tissue: Type of Lesion: SKIN: CARCINOMA, Dose [Carcinogen]: 50 NMOL 1/WK FOR 45 WK","90%, 37%, 59%, not calculated"
same,"tumour outcome (control, treated, inhibition, significance)","Carcinogen: 7-12-DIMETHYLBENZ[A]ANTHRACENE, 57-97-6, 800 NMOL 1/WK FOR 45 WK APPLIED 5 MIN PRIOR TO EACH CARCINOGEN DOSE (STUDY DURATION: 45 WK), Target Tissue: Type of Lesion: SKIN: PAPILLOMA, Dose [Carcinogen]: 50 NMOL 1/WK FOR 45 WK","97%, 53%, 45%, p<0.05"
same,"tumour outcome (control, treated, inhibition, significance)","Carcinogen: BENZO[A]PYRENE, 50-32-8, 800 NMOL ONCE APPLIED 5 MIN PRIOR TO CARCINOGEN DOSE (STUDY DURATION: 25 WK), Target Tissue: Type of Lesion: SKIN: PAPILLOMA, Dose [Carcinogen]: 200 NMOL ONCE, Promoter: 12-O-TETRADECANOYLPHORBOL-13-ACETATE, 16561-29-8","92%, 92%, 0%, not significant"
same,"tumour outcome (control, treated, inhibition, significance)","Carcinogen: BENZO[A]PYRENE, 50-32-8, 1600 NMOL ONCE APPLIED 5 MIN PRIOR TO CARCINOGEN DOSE (STUDY DURATION: 25 WK), Target Tissue: Type of Lesion: SKIN: PAPILLOMA, Dose [Carcinogen]: 200 NMOL ONCE, Promoter: 12-O-TETRADECANOYLPHORBOL-13-ACETATE, 16561-29-8","92%, 85%, 8%, not significant"
